Measured values: patent publication US20080206183A1, “Method of Preparing Grafted Polylysine Dendrimers” (Central national De La Recherche Scientifique, priority 2005, published 2008)

Key:
[1] = Hydrodynamic range by quasi-elastic or static light diffusion (SLD); format: physicochemical
Protocol: (§1) In order to find the characteristic dimension of the GLDs in solution, the hydrodynamic ranges were determined from the molecular diffusion coefficients by using the Stoke-Einstein ratio:
(§2) where η is the viscosity of the medium, k the Boltzmann constant and T the temperature in K. In order to determine Dm, two experimental methods were used: quasi-elastic or static light diffusion (SLD) (coupled or not coupled with SEC), and the Taylor diffusion method (TDA). This latter method makes it possible to measure the diffusion coefficient of a species from the widening of a solute band under the influence of a hydrodynamic flow the speed profile of which is known to be dispersive (parabolic Poiseuille profile).
(§3) The TDA measurements were carried out using a capillary electrophoresis appliance, using silica capillaries of 50 μm i.d. (60 cm×50 cm up to the detector) the internal surface of which was previously modified by grafting a polycation (poly(diallyl-dimethyl-ammonium)) in order to limit the adsorption of the GLD solutes on the surface of the capillary. Dispersion of the solute band under the influence of the Poiseuille flow was measured using a UV spectrophotometer. The diffusion coefficient was then determined according to the method originally described by Taylor, then repeated by Bello et al.. In parallel to the TDA method, measurements were carried out by SLD, using a zetasizer (Malvern) device. Finally, it was also possible to obtain Rh measurements from the 3D-SEC (Viscotek). All of the numerical data for Rh is shown together in Table 3.

[2] = Hydrodynamic range by Taylor diffusion analysis (TDA); format: physicochemical
Protocol: as §1, §2, §3

[3] = Buffer 1 (H2PO4−Na+ 50 g/L, pH 4.5)
[4] = Buffer 2 (Buffer 1 + 3% acetonitrile)
[5] = Buffer 3 (physiological buffer, pH 7.0)

Substance: linear poly-L-Lysine [P1]
- Rh (nm) hydrodynamic range [1, 3]: 1.18 nm
- Rh (nm) hydrodynamic range [1, 4]: 1.1 nm
- Rh (nm) hydrodynamic range [1, 5]: 1.01 nm
- Rh (nm) hydrodynamic range [2, 3]: 1.1 nm
- Rh (nm) hydrodynamic range [2, 4]: 0.95 nm
- Rh (nm) hydrodynamic range [2, 5]: 0.74 nm
